Data reported in patent US7728019B2, “Biphenylcarboxamides” (priority 2002, dated 2010).

Legend:
Alternaria solani = experiment: Alternaria test (tomato)/protective; format: in vivo; details: tomato plants, protective; application rate 750 g/ha; evaluation 7 days after inoculation
Experimental: (§1) To produce a suitable preparation of active compound, 1 part by weight of active compound is mixed with the stated amounts of solvent and emulsifier, and the concentrate is diluted with water to the desired concentration.
To test for protective activity, young tomato plants are sprayed with the preparation of active compound at the stated application rate. 1 day after the treatment, the plants are inoculated with a spore suspension of Alternaria solani and then remain at 100% relative atmospheric humidity and 20° C. for 24 hours. The plants then remain at 96% relative atmospheric humidity and a temperature of 20° C.
Evaluation is carried out 7 days after the inoculation. 0% means an efficacy which corresponds to that of the control, whereas an efficacy of 100% means that no infection is observed.

Botrytis cinerea = experiment: Botrytis test (bean)/protective; format: in vivo; details: 48 h, bean plants, protective, application rate 500 g/ha, evaluation 2 days after inoculation, read-out: Efficacy in %
Experimental: (§2) To produce a suitable preparation of active compound, 1 part by weight of active compound is mixed with the stated amounts of solvents and emulsifier, and the concentrate is diluted with water to the desired concentration.
To test for protective activity, young plants are sprayed with the preparation of active compound at the stated application rate. After the spray coating has dried on, 2 small pieces of agar colonized by Botrytis cinerea are placed onto each leaf. The inoculated plants are placed in a dark chamber at about 20° C. and 100% relative atmospheric humidity.
2 days after the inoculation, the size of the infected areas on the leaves is evaluated. 0% means an efficacy which corresponds to that of the control, whereas an efficacy of 100% means that no infection is observed.

[1] = logP determination by HPLC on reverse-phase column (C 18), acidic range pH 2.3; format: physicochemical; details: reverse-phase HPLC column (C 18), HPLC, C 18 reverse-phase, 43° C.
Experimental: The logP values given in Table 1 were determined with EEC Directive 79/831 Annex V.A8 by HPLC (High Performance Liquid Chromatography) on a reverse-phase column (C 18). Temperature: 43° C. Mobile phases for the determination in the acidic range (pH 2.3): 0.1% aqueous phosphoric acid, acetonitrile; linear gradient from 10% acetonitrile to 90% acetonitrile. Calibration was carried out using unbranched alkan-2-ones (having 3 to 16 carbon atoms) with known logP values (determination of the logP values by the retention times using linear interpolation between two successive alkanones).

[2] = tested on: eggs of the diamond back moth (Plutella xylostella); experiment: Plutella test; format: in vivo; details: active compound concentration 1000 ppm, on synthetic feed
Experimental: To produce a suitable preparation of active compound, 1 part by weight of active compound is mixed with the stated amount of solvent, and the concentrate is diluted with methanol to the desired concentrations.
A stated amount of the preparation of active compound of the desired concentration is pipetted onto a standardized amount of synthetic feed. After the methanol has evaporated, about 200-300 eggs of the diamond back moth (Plutella xylostella) are placed onto the feed.
After the desired period of time, the kill of the eggs in % is determined. 100% means that all animals have been killed; 0% means that none of the animals have been killed.

Puccinia recondita = experiment: Puccinia test (wheat)/protective; format: in vivo; details: 240 h, wheat plants, protective, application rate 500 g/ha, evaluation 10 days after inoculation, read-out: Efficacy in %
Experimental: as §1
To test for protective activity, young plants are inoculated with a spore suspension of Puccinia recondita in a 0.1% strength aqueous agar solution. After the spray coating has dried on, the plants are sprayed with the preparation of active compound at the stated application rate. The plants remain in an incubation cabin at 20° C. and 100% relative atmospheric humidity for 24 hours.
The plants are then placed in a greenhouse at a temperature of about 20° C. and a relative atmospheric humidity of 80% to promote the development of rust pustules.
(§3) Evaluation is carried out 10 days after the inoculation. 0% means an efficacy which corresponds to that of the control, whereas an efficacy of 100% means that no infection is observed.

[3] = tested on: apple scab pathogen Venturia inaequalis; experiment: Venturia test (apple)/protective; format: in vivo; details: apple plants, protective; application rate 100 g/ha; evaluation 10 days after inoculation
Experimental: as §2
To test for protective activity, young plants are sprayed with the preparation of active compound at the stated application rate. After the spray coating has dried on, the plants are inoculated with an aqueous conidia suspension of the apple scab pathogen Venturia inaequalis and then remain in an incubation cabin at about 20° C. and 100% relative atmospheric humidity for 1 day.
The plants are then placed in a greenhouse at about 21° C. and a relative atmospheric humidity of about 90%.
as §3

Row | Compound | Efficacy in % (Alternaria solani) | pest or weed control at 500 g/ha (Botrytis cinerea) | chromatographic logP [1] | Kill rate in % after 7 d [2] | pest or weed control at 500 g/ha (Puccinia recondita) | Efficacy in % [3]
1 | Cc1nc(C(F)(F)F)c(C(=O)Nc2ccccc2-c2ccc(/C=N\OCC3CC3)cc2)s1 [Compound 2] | 90% | 98% | 4.16 |  |  | 
2 | CC1=C(C(=O)Nc2ccccc2-c2ccc(/C(C)=N\OCC3CC3)cc2)SCCO1 [Compound 22] |  |  | 4.69 | 95% |  | 
3 | C=CCO/N=C\c1ccc(-c2ccccc2NC(=O)c2cn(C)nc2C(F)(F)F)cc1 [Compound 11] | 100% |  | 3.53 |  |  | 
4 | C=CCO/N=C\c1ccc(-c2ccccc2NC(=O)c2c(C)nn(C)c2F)cc1 [Compound 6] | 100% | 98% | 3.47 |  | 100% | 97%
5 | C=CCO/N=C(/C)c1ccc(-c2ccccc2NC(=O)c2sc(C)nc2C(F)F)cc1 [Compound 15] |  |  | 3.92 | 95% | 100% | 
6 | C=CCO/N=C\c1ccc(-c2ccccc2NC(=O)c2sc(C)nc2C(F)(F)F)cc1 [Compound 5] | 100% | 83% | 3.91 |  |  | 100%
